Results taken from US6740640B2, “Sulfofucosylacylglycerol derivatives and administration thereof as medicaments” (Toyo Suisan Kaisha, Ltd., priority 1999, dated 2004).
Counter-ions that a name gives are not always drawn.

Legend:
DNA polymerase α = molecular target: T1, DNA polymerase α (Bos taurus, UniProt A0AAA9TD94); experiment: Inhibitory effect against DNA polymerase α ([3H]-dTTP incorporation); assay type: biochemical; conditions: DNA polymerase α from bovine thymus, 0.05 U, 37° C. for 60 minutes
T1 construct: from tissue; host or cells: bovine thymus
T1 sequence (A0AAA9TD94 1-1441): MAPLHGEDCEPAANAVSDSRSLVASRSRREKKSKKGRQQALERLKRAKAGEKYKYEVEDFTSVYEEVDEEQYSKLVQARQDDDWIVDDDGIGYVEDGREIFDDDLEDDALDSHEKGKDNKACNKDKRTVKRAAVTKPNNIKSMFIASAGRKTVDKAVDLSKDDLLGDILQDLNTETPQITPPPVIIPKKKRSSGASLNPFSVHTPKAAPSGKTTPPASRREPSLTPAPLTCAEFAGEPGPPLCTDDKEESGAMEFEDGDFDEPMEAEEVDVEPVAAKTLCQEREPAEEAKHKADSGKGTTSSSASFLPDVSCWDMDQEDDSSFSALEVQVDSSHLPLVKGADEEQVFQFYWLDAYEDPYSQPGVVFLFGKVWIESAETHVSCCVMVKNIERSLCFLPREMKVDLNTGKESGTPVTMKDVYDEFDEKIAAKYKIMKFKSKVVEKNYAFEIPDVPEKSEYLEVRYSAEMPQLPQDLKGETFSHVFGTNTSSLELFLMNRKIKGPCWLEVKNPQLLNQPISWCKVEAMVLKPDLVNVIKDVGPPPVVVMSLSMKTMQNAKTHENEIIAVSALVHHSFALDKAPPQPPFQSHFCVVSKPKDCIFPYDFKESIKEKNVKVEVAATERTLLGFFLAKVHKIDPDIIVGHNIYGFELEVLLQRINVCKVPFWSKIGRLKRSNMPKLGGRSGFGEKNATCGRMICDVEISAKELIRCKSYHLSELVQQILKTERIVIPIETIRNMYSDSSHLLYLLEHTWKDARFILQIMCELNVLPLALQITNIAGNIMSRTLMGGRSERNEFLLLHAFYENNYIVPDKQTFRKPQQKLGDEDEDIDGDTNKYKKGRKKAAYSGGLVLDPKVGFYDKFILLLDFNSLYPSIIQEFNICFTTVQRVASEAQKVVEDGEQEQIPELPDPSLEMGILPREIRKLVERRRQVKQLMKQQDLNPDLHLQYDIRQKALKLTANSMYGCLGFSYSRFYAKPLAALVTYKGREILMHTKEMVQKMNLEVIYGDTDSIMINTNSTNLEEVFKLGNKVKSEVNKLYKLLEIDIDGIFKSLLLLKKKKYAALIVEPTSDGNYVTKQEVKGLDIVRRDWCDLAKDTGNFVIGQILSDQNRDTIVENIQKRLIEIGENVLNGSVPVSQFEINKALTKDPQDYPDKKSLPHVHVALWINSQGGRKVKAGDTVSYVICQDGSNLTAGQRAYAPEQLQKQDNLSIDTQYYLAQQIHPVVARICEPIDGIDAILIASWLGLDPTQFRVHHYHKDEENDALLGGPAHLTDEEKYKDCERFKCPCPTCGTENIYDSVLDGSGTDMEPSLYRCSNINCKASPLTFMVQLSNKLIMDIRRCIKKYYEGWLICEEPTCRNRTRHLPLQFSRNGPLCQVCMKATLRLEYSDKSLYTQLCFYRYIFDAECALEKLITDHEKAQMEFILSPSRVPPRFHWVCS
Procedure: An assay on inhibitory effect against a DNA polymerase α was carried out in the following manner.
Each mixture was added with a buffer containing inorganic salts for the enzymatic reaction, [^3H]-labeled dTTP and compounds for reaction containing a template DNA strand, and incubated at 37° C. for 60 minutes.
After the enzymatic reaction was quenched, the resultant reaction product was fixed on a dedicated filter and subjected to measurement by a liquid scintillation counter. The amount of enzymatically incorporated dTTP was calculated as a radiation dose (cpm) of [^3H]. Note that, each of the sulfofucosylacylglycerol derivatives is a mixture of the S- and R-configurations with respect to an absolute configuration of the carbon of the 2-position of the glycerol moiety.
The results are shown as IC50 in Table 1 below.

[1] = system: gastric cancer cells NUGC-3; experiment: Anticancer activity against cultured gastric cancer cells (MTT assay); assay type: cell-based; conditions: Homo sapiens, NUGC-3, 48 hour cultivation
Procedure: (§1) Colon cancer cells DLD-1 were maintained and subcultured in RPMI 1640 medium (containing 10% calf serum). Each of the test compounds (SFAG1 to SFAG3 shown in Table 1) was suspended and diluted in the medium, and then the cancer cells were cultivated together with the medium in a 96-well plate at 3×10^3 cells/well. After 48 hour cultivation, the MTT assay (Mosmann, T: Journal of Immunological Method, 65, 55-63 (1983)) was carried out to compare survival rates.
An assay on anticancer activity against cultured gastric cancer cells was carried out in the same manner as in the Assay 2 except that gastric cancer cells NUGC-3 were used instead of the colon cancer cells DLD-1.
The results are shown as IC50 in Table 3 below.

Colon cancer cells DLD-1 = experiment: Anticancer activity against cultured colon cancer cells (MTT assay); assay type: cell-based; conditions: Homo sapiens, DLD-1, 48 hour cultivation
Procedure: An assay on anticancer activity against cultured colon cancer cells was carried out in the following manner.
as §1
The results are shown as IC50 in Table 2 below.

Row | SMILES | IC50 [1] | IC50 (Colon cancer cells DLD-1) | IC50 (DNA polymerase α)
1 | CCCCCCCCCCCCCC(=O)OCC(O)CO[C@H]1O[C@H](CS(=O)(=O)[O-])[C@H](O)[C@H](O)[C@H]1O.[Na+] (stereo partly drawn) [SFAG1, 3-O-(6-deoxy-6-sulfo-α-D-galactopyranosyl)-1-O-myristoyl-glycerol sodium salt] | 44.3 µg/mL | 44 µg/mL | 7.63 µM
2 | CCCCCCCCCCCCCC(=O)OCC(CO[C@H]1O[C@H](CS(=O)(=O)O)[C@H](O)[C@H](O)[C@H]1O)OC(=O)CCCCCCCCCCCCC (stereo partly drawn) [SFAG4, 3-O-(6-deoxy-6-sulfo-α-D-galactopyranosyl)-1,2-di-O-myristoyl-glycerol sodium salt] |  |  | 0.657 µM
3 | CCCCCCCCCCCCCCCC(=O)OCC(CO[C@H]1O[C@H](CS(=O)(=O)O)[C@H](O)[C@H](O)[C@H]1O)OC(=O)CCCCCCCCCCCCCCC (stereo partly drawn) [SFAG5, 3-O-(6-deoxy-6-sulfo-α-D-galactopyranosyl)-1,2-di-O-palmitoyl-glycerol sodium salt] |  |  | 0.551 µM
4 | CCCCCCCCCCCCCCCCCC(=O)OCC(CO[C@H]1O[C@H](CS(=O)(=O)O)[C@H](O)[C@H](O)[C@H]1O)OC(=O)CCCCCCCCCCCCCCCCC (stereo partly drawn) [SFAG6, 3-O-(6-deoxy-6-sulfo-α-D-galactopyranosyl)-1,2-di-O-stearoyl-glycerol sodium salt] |  |  | 0.458 µM

Continued, in another order:

Row | IC50 [1] | IC50 (Colon cancer cells DLD-1) | SMILES | IC50 (DNA polymerase α)
5 | 41.7 µg/mL | 41.5 µg/mL | CCCCCCCCCCCCCCCC(=O)OCC(O)CO[C@H]1O[C@H](CS(=O)(=O)[O-])[C@H](O)[C@H](O)[C@H]1O.[Na+] (stereo partly drawn) [SFAG2, 3-O-(6-deoxy-6-sulfo-α-D-galactopyranosyl)-1-O-palmitoyl-glycerol sodium salt] | 8.64 µM
6 | 30.3 µg/mL | 27.5 µg/mL | CCCCCCCCCCCCCCCCCC(=O)OCC(O)CO[C@H]1O[C@H](CS(=O)(=O)[O-])[C@H](O)[C@H](O)[C@H]1O.[Na+] (stereo partly drawn) [SFAG3, 3-O-(6-deoxy-6-sulfo-α-D-galactopyranosyl)-1-O-stearoyl-glycerol sodium salt] | 8.24 µM
